Reference: PubChem BioAssay AID248 (DTP/NCI, 2004)
Several values for one entry are separate records, joined by “and”; a condition that tells them apart may be missing. Identical values can stand only once. Inconclusive results and toxic doses are left out.

Test system: L1210 leukemia ip in BDF1 mice, survival T/C
Test: NCI In Vivo Anticancer Drug Screen. Data for tumor model L1210 Leukemia (intraperitoneal) in B6D2F1 (BDF1) mice
Details: endpoint: mean survival time, higher = longer survival
In short: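 Value reflects the ratio of survival in compound-treated mice to survival in vehicle-treated controls, with both groups carrying the same transplanted tumor.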

[1] = dose: 100.0 mg/kg/injection, schedule: Q01DX001 (ip), vehicle: saline
[2] = dose: 100.0 mg/kg/injection, schedule: Q04DX003 (ip), vehicle: Klucel (hydroxypropylcellulose) (HPC)
[3] = dose: 200.0 mg/kg/injection, schedule: Q04DX003 (ip), vehicle: Klucel (hydroxypropylcellulose) (HPC)

With `CCOc1c(CNC(=O)CCl)cc(N)cc1CNC(=O)CCl` the T/C (dose: 50.0 mg/kg/injection, schedule: Q01DX001 (ip), vehicle: saline) was 106 % of control and the T/C [1] was 111 % of control.
In the case of `CC1(C)C(C)(C)C1(F)Cl`, the T/C (dose: 100.0 mg/kg/injection, schedule: Q01DX001 (ip), vehicle: carboxymethylcellulose (CMC)) was 101 % of control, the T/C (dose: 200.0 mg/kg/injection, schedule: Q01DX001 (ip), vehicle: carboxymethylcellulose (CMC)) was 106 % of control and the T/C (dose: 400.0 mg/kg/injection, schedule: Q01DX001 (ip), vehicle: carboxymethylcellulose (CMC)) was 118 % of control.
For `O=S1(=O)N2CN3CCN(C2)CN1C3`, the T/C (dose: 100.0 mg/kg/injection, schedule: Q01DX009 (ip), vehicle: Klucel (hydroxypropylcellulose) (HPC)) was 105 % of control, the T/C [2] was 95 % of control and the T/C (dose: 200.0 mg/kg/injection, schedule: Q01DX009 (ip), vehicle: Klucel (hydroxypropylcellulose) (HPC)) was 115 % of control. For the same molecule, the T/C [3] was 103 % of control, the T/C (dose: 400.0 mg/kg/injection, schedule: Q01DX009 (ip), vehicle: Klucel (hydroxypropylcellulose) (HPC)) was 98 % of control and the T/C (dose: 400.0 mg/kg/injection, schedule: Q04DX003 (ip), vehicle: Klucel (hydroxypropylcellulose) (HPC)) was 98 % of control.
In the case of `CN=C(N)N`, the T/C (dose: 100.0 mg/kg/injection, schedule: Q04DX003 (ip), vehicle: saline with Tween-80) was 102 % of control, the T/C (dose: 200.0 mg/kg/injection, schedule: Q04DX003 (ip), vehicle: saline with Tween-80) was 101 % of control and the T/C (dose: 400.0 mg/kg/injection, schedule: Q04DX003 (ip), vehicle: saline with Tween-80) was 103 % of control.
For `Cn1ncn(/N=C/c2ccc([N+](=O)[O-])o2)c1=O`, the T/C (dose: 12.5 mg/kg/injection, schedule: Q01DX009 (ip), vehicle: other) was 91 % of control, the T/C (dose: 25.0 mg/kg/injection, schedule: Q01DX009 (ip), vehicle: other) was 93 % of control and the T/C (dose: 50.0 mg/kg/injection, schedule: Q01DX009 (ip), vehicle: other) was 91 % of control. The T/C (dose: 100.0 mg/kg/injection, schedule: Q01DX009 (ip), vehicle: other) was 87 % of control and the T/C (dose: 200.0 mg/kg/injection, schedule: Q01DX009 (ip), vehicle: other) was 87 % of control.
In the case of `c1ccc2cc(C3OCC4(CCCCC4)CO3)ccc2c1`, the T/C (dose: 100.0 mg/kg/injection, schedule: Q01DX001 (ip), vehicle: Klucel (hydroxypropylcellulose) (HPC)) was 96 % of control, the T/C (dose: 200.0 mg/kg/injection, schedule: Q01DX001 (ip), vehicle: Klucel (hydroxypropylcellulose) (HPC)) was 100 % of control and the T/C (dose: 400.0 mg/kg/injection, schedule: Q01DX001 (ip), vehicle: Klucel (hydroxypropylcellulose) (HPC)) was 100 % of control.
With `CCOC(=O)/C=C(/Nc1ccc(OC)cc1[N+](=O)[O-])C(=O)OCC` the T/C [1] was 95 % of control, the T/C (dose: 200.0 mg/kg/injection, schedule: Q01DX001 (ip), vehicle: saline) was 95 % of control and the T/C (dose: 400.0 mg/kg/injection, schedule: Q01DX001 (ip), vehicle: saline) was 104 % of control.
In the case of `CCN1C(=O)/C(=C\C=C2\SCCN2CI)OC1=S`, the T/C (dose: 177.6 mg/kg/injection, schedule: Q01DX001 (ip), vehicle: other) was 98 % of control and 89 % of control, the T/C (dose: 266.8 mg/kg/injection, schedule: Q01DX001 (ip), vehicle: other) was 96 % of control and the T/C (dose: 400.0 mg/kg/injection, schedule: Q01DX001 (ip), vehicle: other) was 96 % of control and 89 % of control. For the same molecule, the T/C (dose: 600.0 mg/kg/injection, schedule: Q01DX001 (ip), vehicle: other) was 103 % of control and 87 % of control.
`C=C(C)C(=O)Nc1ccccc1` was tested, and the T/C [2] was 86 % of control and the T/C [3] was 89 % of control.
With `CSc1ccc(NC(=O)N(CCCl)N=O)cc1` the T/C (dose: 0.7 mg/kg/injection, schedule: Q01DX001 (ip), vehicle: carboxymethylcellulose (CMC)) was 109 % of control, the T/C (dose: 1.5 mg/kg/injection, schedule: Q01DX001 (ip), vehicle: carboxymethylcellulose (CMC)) was 112 % of control and the T/C (dose: 2.0 mg/kg/injection, schedule: Q01DX009 (ip), vehicle: other) was 171 % of control. For the same molecule, the T/C (dose: 2.6 mg/kg/injection, schedule: Q01DX009 (ip), vehicle: carboxymethylcellulose (CMC)) was 113 % of control, the T/C (dose: 4.0 mg/kg/injection, schedule: Q01DX009 (ip), vehicle: carboxymethylcellulose (CMC)) was 119 % of control and the T/C (dose: 4.0 mg/kg/injection, schedule: Q01DX009 (ip), vehicle: other) was 180 % of control. For the same molecule, the T/C (dose: 8.0 mg/kg/injection, schedule: Q01DX001 (ip), vehicle: other) was 208 % of control, the T/C (dose: 8.0 mg/kg/injection, schedule: Q01DX009 (ip), vehicle: other) was 170 % of control and the T/C (dose: 8.3 mg/kg/injection, schedule: Q01DX001 (ip), vehicle: carboxymethylcellulose (CMC)) was 175 % of control. For the same molecule, the T/C (dose: 9.0 mg/kg/injection, schedule: Q01DX009 (ip), vehicle: carboxymethylcellulose (CMC)) was 156 % of control, the T/C (dose: 12.0 mg/kg/injection, schedule: Q01DX001 (ip), vehicle: other) was 194 % of control and the T/C (dose: 12.5 mg/kg/injection, schedule: Q01DX001 (ip), vehicle: carboxymethylcellulose (CMC)) was 187 % of control. For the same molecule, the T/C (dose: 18.0 mg/kg/injection, schedule: Q01DX001 (ip), vehicle: other) was 101 % of control, the T/C (dose: 18.7 mg/kg/injection, schedule: Q01DX001 (ip), vehicle: carboxymethylcellulose (CMC)) was 211 % of control and the T/C (dose: 25.0 mg/kg/injection, schedule: Q01DX001 (ip), vehicle: carboxymethylcellulose (CMC)) was 94 % of control.
